Consider four compounds from patent publication US20090124663A1, “Novel n-phenyl-piperidine derivatives and their use as monoamine neurotransmitter re-uptake inhibitors” (NeuroSearch A/S, priority 2005, published 2009).

Data set [1] addresses T1, reuptake of dopamine (DA) in synaptosomes (Rattus norvegicus, UniProt P23977).
T1 construct: in synaptosomes as described in WO 97/16451; from tissue
The experiment in a line: Inhibition of dopamine reuptake in synaptosomes. In kind it is biochemical. As for the experimental part:
(§1) Compounds were tested for their ability to inhibit the reuptake of the monoamine neurotransmitters dopamine (DA) noradrenaline (NA) and serotonine (5-HT) in synaptosomes as described in WO 97/16451.
(§2) The test values are given as IC50 (the concentration (μM) of the test substance which inhibits the specific binding of ^3H-DA, ^3H-NA, or ^3H-5-HT by 50%).

Data set [2] has as its target T2, reuptake of noradrenaline (NA) in synaptosomes (Rattus norvegicus, UniProt Q9WTR4).
T2 construct: in synaptosomes as described in WO 97/16451; from tissue
The experiment in a line: Inhibition of noradrenaline reuptake in synaptosomes. In kind it is biochemical. On the procedure:
as §1, §2

Data set [3] concerns the target T3, reuptake of serotonine (5-HT) in synaptosomes (Rattus norvegicus, UniProt P31652).
T3 construct: in synaptosomes as described in WO 97/16451; from tissue
The experiment in a line: Inhibition of serotonin reuptake in synaptosomes. In kind it is biochemical. As for the experimental part:
as §1, §2

Molecules are shown by their SMILES. Counter-ions that a name gives are not always drawn.

T3 sequence (P31652 whole entry): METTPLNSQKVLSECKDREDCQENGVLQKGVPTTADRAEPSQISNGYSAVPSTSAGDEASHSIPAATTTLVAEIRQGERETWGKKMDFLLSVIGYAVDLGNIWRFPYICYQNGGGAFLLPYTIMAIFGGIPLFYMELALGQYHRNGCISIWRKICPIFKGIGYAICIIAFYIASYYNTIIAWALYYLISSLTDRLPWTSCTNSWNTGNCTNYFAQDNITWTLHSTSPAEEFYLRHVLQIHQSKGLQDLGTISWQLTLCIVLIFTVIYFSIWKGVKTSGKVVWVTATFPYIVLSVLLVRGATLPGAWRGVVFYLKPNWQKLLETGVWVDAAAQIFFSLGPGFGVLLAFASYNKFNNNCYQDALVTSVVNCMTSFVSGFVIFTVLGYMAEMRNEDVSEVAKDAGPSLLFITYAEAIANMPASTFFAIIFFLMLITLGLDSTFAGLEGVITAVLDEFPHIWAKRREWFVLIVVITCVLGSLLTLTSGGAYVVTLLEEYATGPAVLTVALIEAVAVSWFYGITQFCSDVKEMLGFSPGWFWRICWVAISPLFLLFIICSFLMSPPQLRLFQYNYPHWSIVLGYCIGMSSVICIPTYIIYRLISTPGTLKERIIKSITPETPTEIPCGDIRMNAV
T2 sequence (Q9WTR4 1-597): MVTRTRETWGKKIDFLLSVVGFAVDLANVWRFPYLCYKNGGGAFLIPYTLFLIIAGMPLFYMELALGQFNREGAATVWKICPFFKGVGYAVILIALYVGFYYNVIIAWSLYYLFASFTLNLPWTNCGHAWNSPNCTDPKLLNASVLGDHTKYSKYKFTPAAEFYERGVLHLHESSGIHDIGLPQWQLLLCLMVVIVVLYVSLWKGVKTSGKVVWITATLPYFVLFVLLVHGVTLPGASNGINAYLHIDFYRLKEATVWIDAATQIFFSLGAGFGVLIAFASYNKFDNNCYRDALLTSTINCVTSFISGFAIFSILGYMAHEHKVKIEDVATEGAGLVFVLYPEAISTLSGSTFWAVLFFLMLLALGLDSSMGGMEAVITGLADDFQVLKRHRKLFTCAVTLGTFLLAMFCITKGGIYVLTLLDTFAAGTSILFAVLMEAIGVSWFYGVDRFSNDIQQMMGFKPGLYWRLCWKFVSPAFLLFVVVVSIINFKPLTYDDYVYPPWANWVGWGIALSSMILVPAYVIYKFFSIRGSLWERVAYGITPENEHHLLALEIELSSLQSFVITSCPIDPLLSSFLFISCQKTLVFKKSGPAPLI
T1 sequence (P23977 whole entry): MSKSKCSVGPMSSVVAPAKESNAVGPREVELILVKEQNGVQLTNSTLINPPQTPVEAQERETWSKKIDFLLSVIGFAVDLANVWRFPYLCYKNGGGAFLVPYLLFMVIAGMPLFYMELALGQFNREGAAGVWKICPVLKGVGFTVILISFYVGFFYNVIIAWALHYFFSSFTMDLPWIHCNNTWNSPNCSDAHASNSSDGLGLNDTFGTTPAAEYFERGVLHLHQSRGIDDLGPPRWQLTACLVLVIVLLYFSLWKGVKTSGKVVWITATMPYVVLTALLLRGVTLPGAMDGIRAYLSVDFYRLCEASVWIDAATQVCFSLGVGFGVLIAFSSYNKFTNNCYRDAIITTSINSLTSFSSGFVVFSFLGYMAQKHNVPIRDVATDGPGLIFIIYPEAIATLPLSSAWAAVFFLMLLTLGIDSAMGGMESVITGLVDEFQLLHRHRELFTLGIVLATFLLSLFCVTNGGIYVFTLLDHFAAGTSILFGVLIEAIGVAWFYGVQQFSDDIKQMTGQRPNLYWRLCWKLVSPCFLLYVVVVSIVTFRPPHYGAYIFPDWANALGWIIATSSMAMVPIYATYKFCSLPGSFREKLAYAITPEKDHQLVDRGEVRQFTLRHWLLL

As to `CNC1CCN(c2ccc(Cl)c(Cl)c2)CC1` (as salt: hydrochloric acid salt) [1st compound of method B, [1-(3,4-Dichloro-phenyl)-piperidin-4-yl]-methyl-amine], the melting point is 240 to 244 °C.
As to `CNC1CCN(c2ccc(Cl)c(Cl)c2)CC1` [1st compound of method B, [1-(3,4-Dichloro-phenyl)-piperidin-4-yl]-methyl-amine], the IC50 was determined as 380 nM in data set [1], 200 nM in data set [2] and 27 nM in data set [3].
Turning to `NC1CCN(c2ccc(Cl)c(Cl)c2)CC1` (as salt: hydrochloric acid salt) [1st compound of method A, 1-(3,4-Dichloro-phenyl)-piperidin-4-ylamine], the melting point is > 250 °C (dec.).
As for `NC1CCN(c2ccc(Cl)c(Cl)c2)CC1` [1st compound of method A, 1-(3,4-Dichloro-phenyl)-piperidin-4-ylamine], the IC50 in data set [1] was 400 nM; in data set [2], 150 nM; in data set [3], 27 nM.

In general, melting point refers to the temperature of the solid-liquid transition. A word on the IC50: it is the midpoint of a concentration-inhibition curve. A lower IC50 goes with higher potency.
